In US6605641B2, “20-HETE antagonists and agonists” (MCW Research Foundation, priority 1998, dated 2003):
Entries after “also recorded” stand apart in the source; their conditions may differ.

Columns and labels:
[1] = tested on: isolated, pressured rat renal interlobular arteries; experiment: Isolated vessel studies: vasoconstrictor response (vascular diameter) to cumulative doses of 20-HETE analogs; format: cell-based; conditions: 10^−8 to 10^−6 M (up to 1 μM), indomethacin, baicalein, 17-ODYA present, diameter 2 to 3 minutes after addition
Experimental: General. Experiments were performed on 10 to 12-week old male Sprague-Dawley rats purchased from Harlan Sprague-Dawley Laboratories (Indianapolis, Ind.). The rats were housed in the animal care facility at the Medical College of Wisconsin, which is approved by the American Association for the Accreditation of Laboratory Animal Care. The animals had free access to food and water. All protocols involving animals received approval by the Animal Care Committee of the Medical College of Wisconsin.
(§1) Isolated vessel studies. Interlobular arterioles (70-120 μm inner diameter) were microdissected from the kidneys of rats. The vessels were mounted on glass micropipettes in a perfusion chamber containing physiological saline solution equilibrated with a 95% O2-5% CO2 gas mixture and maintained at 37° C. The vessel were secured to the pipettes and side branches were tied off with 10-0 silk suture. The inflow pipette was connected to a pressurized reservoir to control of intraluminal perfusion pressure, which was monitored using a transducer (Cobe, Lakewood, Colo.). The vessels were stretched to in vivo length measured before microdissection. The outflow cannula was clamped off and intraluminal pressure was maintained at 90 mm Hg during the experiment. Vascular diameters were measured with a video system composed of a stereo microscope (Carl Zeiss, Inc., Germany), a CCTV television camera (KP-130AU, Hitachi, Japan), a videocassette recorder (AG-7300, Panasonic, Japan), a television monitor (CVM-1271, Sony, Japan), and a video measuring system (VIA-100, Boeckeler Instrument Co., Tucson, Ariz.).
(§2) The composition of the perfusate and the bath was (in mM): 119 NaCl, 4.7 KCl, 1.17 MgSO4, 1.6 CaCl2, 12 NaHCO3, 1.18 NaH2PO4, 0.03 EDTA and 10 glucose, pH 7.4. Indomethacin (5 μM), baicalein (0.5 μM) and 17-ODYA (1 μM) were added to the bath to block the endogenous formation and metabolism of eicosanoids via the cyclooxygenase, lipoxygenase and cytochrome P450 pathways. After the equilibration period, cumulative dose response curves were generated for each of the 20-HETE analogs.
Effect of the position of the hydroxyl group on the vasoconstrictor response to 20-HETE. These experiments examined the effects of increasing concentrations of 5(S)-, 8(S)-, 12(S)-, 15(S)-, and 19(S)-HETE on the diameter of isolated, pressured rat renal interlobular arteries. All of these analogs have the same number of carbons, double bonds and molecular weight as 20-HETE (FIG. 1). The major difference between these compounds and 20-HETE is the position of the OH group along the carbon chain. Additional experiments were performed with arachidonic acid and 20-carboxyarachidonic acid, which are structurally similar to 20-HETE but lack a hydroxyl group on the 20th carbon and 20-hydroxyeicosa-6, 15-dienoic acid (reverse 20-HETE) which has the carboxy- and hydroxy-moieties on the 1st and 20th carbons reversed. Cumulative dose response curves were generated for each compound (10^−8 to 10^−6 M) in the presence of indomethacin, baicalein, and 17-ODYA. Vascular diameters were recorded 2 to 3 minutes after the addition of the compounds to the bath.
Effect of the double bonds and carbon chain length to the vasoconstrictor response to 20-HETE. We next examined the importance of the double bonds and the length of the carbon chain to the vasoconstrictor response to 20-HETE. In these studies, the double bonds in the 20-HETE molecule were removed creating partial and saturated 20-HETE derivatives (20-hydroxyeicosa-6(Z),15(Z) dienoic acid; 20-hydroxyeicosanoic acid, FIG. 1). 20-HETE was also shortened by one carbon, creating a 19-carbon analog (19-hydroxynonadeca-5(Z),8(Z),11(Z),14(Z)-tetraenoic acid, FIG. 1) and double bonds were removed, creating a saturated 19-carbon analog (19 hydroxynonadecanoic acid, FIG. 1). […]

[2] = tested on: vasoconstrictor response to 20-HETE in isolated renal interlobular arteries; experiment: 20-HETE antagonist activity: dose response curves to 20-HETE before and after addition of analog; format: cell-based, rat; conditions: for effect of analog on the vasoconstrictor response to 20-HETE (antagonist activity): analog 0.5 or 1 μM in bath, 20-HETE 10^−8 to 10^−6 M; for reduction of the vasoconstrictor response to 20-HETE: analog 1 μM in bath, for arachidonic acid response to 1 μM 20-HETE
Experimental: We also disclose below a test for 20-HETE antagonist activity. In this analysis, test compounds were analyzed by a cumulative dose response curve to 20-HETE generated before and after the addition of the test compound. […] We envision suitable antagonists as similarly blocking the vasoconstrictor response.
as §1, §2
20-HETE antagonist activity. […] In these experiments, cumulative dose response curves to 20-HETE (10^−8 to 10^−6 M) were generated before and after addition of 5(S)-HETE (0.5 μM), 8(S)-HETE (1 μM), 12(S)-HETE (0.5 μM), 15(S)-HETE (1 μM), 19(S)-HETE (1 μM), the C19-analog (1 μM), arachidonic acid (1 μM), 20-carboxy-arachidonic acid (1 μM), reverse 20-HETE (1 μM), saturated 20-HETE (1 μM), and the saturated C19-analog (1 μM) to the bath. Vascular diameters were recorded 2 to 3 minutes after the addition of each dose of 20-HETE to the bath.

CCCCC/C=C\C/C=C\C/C=C\C=C\[C@@H](O)CCCC(=O)O [5(S)-HETE]
effect on the diameter of renal interlobular arteries (vasoconstrictor/agonist activity) [1]: no significant effect | effect on the diameter of renal interlobular arteries (vasoconstrictor/agonist activity) ([1]; listed as 5-HETE): no effect | effect of analog on the vasoconstrictor response to 20-HETE (antagonist activity) ([2]; listed as 5-HETE): completely blocked; also recorded: very effective antagonists; also recorded: blocked the vasoconstrictor response to 20-HETE

CCCCC/C=C\C/C=C\C=C\[C@@H](O)C/C=C\CCCC(=O)O [8(S)-HETE]
effect on the diameter of renal interlobular arteries (vasoconstrictor/agonist activity) [1]: no significant effect | effect on the diameter of renal interlobular arteries (vasoconstrictor/agonist activity) ([1]; listed as 8-HETE): no effect | effect of analog on the vasoconstrictor response to 20-HETE (antagonist activity) [2]: no significant effect | effect of analog on the vasoconstrictor response to 20-HETE (antagonist activity) ([2]; listed as 8-HETE): did not antagonize

CCCCC/C=C\C[C@H](O)/C=C/C=C\C/C=C\CCCC(=O)O [12(S)-HETE]
effect on the diameter of renal interlobular arteries (vasoconstrictor/agonist activity) [1]: no significant effect | effect on the diameter of renal interlobular arteries (vasoconstrictor/agonist activity) ([1]; listed as 12-HETE): no effect | effect of analog on the vasoconstrictor response to 20-HETE (antagonist activity) [2]: no significant effect | effect of analog on the vasoconstrictor response to 20-HETE (antagonist activity) ([2]; listed as 12-HETE): did not antagonize

CCCCC[C@H](O)/C=C/C=C\C/C=C\C/C=C\CCCC(=O)O [15(S)-HETE]
effect on the diameter of renal interlobular arteries (vasoconstrictor/agonist activity) [1]: no significant effect | effect on the diameter of renal interlobular arteries (vasoconstrictor/agonist activity) ([1]; listed as 15-HETE): no effect | effect of analog on the vasoconstrictor response to 20-HETE (antagonist activity) ([2]; listed as 15-HETE): completely blocked; also recorded: very effective antagonists; also recorded: blocked the vasoconstrictor response to 20-HETE

C[C@H](O)CCC/C=C\C/C=C\C/C=C\C/C=C\CCCC(=O)O [19(S)-HETE]
effect on the diameter of renal interlobular arteries (vasoconstrictor/agonist activity) [1]: no significant effect | effect on the diameter of renal interlobular arteries (vasoconstrictor/agonist activity) ([1]; listed as 19-HETE): no effect | effect of analog on the vasoconstrictor response to 20-HETE (antagonist activity) ([2]; listed as 19-HETE): completely eliminated the response to 20-HETE; also recorded: very effective antagonists

O=C(O)CCCC/C=C\CCCCCCC/C=C\CCCCO [20-Hydroxyeicosa-6(Z),15(Z)-dienoic Acid]
effect on the diameter of renal interlobular arteries (vasoconstrictor/agonist activity) [1]: eliminated agonist activity | effect of analog on the vasoconstrictor response to 20-HETE (antagonist activity) [2]: completely blocked | effect of analog on the vasoconstrictor response to 20-HETE (antagonist activity) ([2]; listed as partially saturated reverse 20-HETE): completely eliminated the response to 20-HETE

O=C(O)CCC/C=C\C/C=C\C/C=C\C/C=C\CCCCCCO [21-HETE, 21-Hydroxyheneicosa-5(Z),8(Z),11(Z),14(Z)-tetraenoic Acid]
effect on the diameter of renal interlobular arteries (vasoconstrictor/agonist activity) [1]: just as potent constrictors as 20-HETE | effect on the diameter of renal interlobular arteries (vasoconstrictor/agonist activity) ([1]; listed as 21-carbon derivative): just as potent vasoconstrictors as 20-HETE

O=C(O)CCC/C=C\C/C=C\C/C=C\C/C=C\CCCCO [C19-analog, 19-Hydroxynonadeca-5(Z),8(Z),11(Z),14(Z)-tetraenoic Acid]
effect on the diameter of renal interlobular arteries (vasoconstrictor/agonist activity) ([1]; listed as 19-carbon analog of 20-HETE): no significant effect | effect on the diameter of renal interlobular arteries (vasoconstrictor/agonist activity) ([1]; listed as 19-carbon derivative of 20-HETE): no effect | effect of analog on the vasoconstrictor response to 20-HETE (antagonist activity) [2]: completely eliminated the response to 20-HETE | effect of analog on the vasoconstrictor response to 20-HETE (antagonist activity) ([2]; listed as C19 analog): very effective antagonists

CCCCC/C=C\C/C=C\C/C=C\C/C=C\CCCC(=O)O [arachidonic acid]
effect on the diameter of renal interlobular arteries (vasoconstrictor/agonist activity) [1]: no significant effect; also recorded: does not constrict | reduction of the vasoconstrictor response to 20-HETE [2]: 50% | effect of analog on the vasoconstrictor response to 20-HETE (antagonist activity) [2]: very effective antagonists

CC(C)(O)CCCCC=CCC=CCC=CCC=CCCCC(=O)O [dimethyl 20-HETE, 20,20-Dimethyl-20-HETE]
effect on the diameter of renal interlobular arteries (vasoconstrictor/agonist activity) [1]: just as potent constrictors as 20-HETE | effect on the diameter of renal interlobular arteries (vasoconstrictor/agonist activity) ([1]; listed as dimethyl derivative): just as potent vasoconstrictors as 20-HETE

O=C(O)CCC/C=C\CCCCCCC/C=C\CCCCCO [partially saturated 20-HETE derivative, 20-Hydroxyeicosa-5(Z),14(Z)-dienoic Acid]
effect on the diameter of renal interlobular arteries (vasoconstrictor/agonist activity) [1]: potent a constrictor as 20-HETE | effect on the diameter of renal interlobular arteries (vasoconstrictor/agonist activity) ([1]; listed as partially saturated analog): retained vasoconstrictor activity

O=C(O)CCCCCCCCCCCCCCCCCCO [saturated 19-carbon analog, 19-Hydroxynonadecanoic Acid]
reduction of the vasoconstrictor response to 20-HETE [2]: about 50% | effect of analog on the vasoconstrictor response to 20-HETE (antagonist activity) [2]: not as effective as the parent compounds

Eicosatetraen-1,20-dioic Acid [20-carboxy-arachidonic acid]
effect on the diameter of renal interlobular arteries (vasoconstrictor/agonist activity) [1]: no significant effect | effect of analog on the vasoconstrictor response to 20-HETE (antagonist activity) [2]: no significant antagonistic properties
